The nature of series [1]: Agonist activity at beta-adrenoceptor in guinea pig atria assessed as cardiac stimulant activity by measuring change in rate of contraction of right atrial muscle. The series is classed as tissue-based, Cavia porcellus, Cardiac atrium.
Series [2] is described as follows: Intrinsic activity at beta-adrenoceptor in guinea pig atria assessed as cardiac stimulant activity by measuring change in rate of contraction of right atrial muscle relative to isoproterenol. Format: ADME, tissue-based, Cavia porcellus, Cardiac atrium.
Series [3] is described as follows: Separation ratio of ED25 at beta-adrenoceptor in guinea pig atria to ED50 for beta-adrenoceptor in guinea pig trachea. Also on record: species or system Cavia porcellus.
Series [4] is filed under the species Cavia porcellus. In words: Intrinsic activity at beta-adrenoceptor in guinea pig trachea assessed as relaxation of spontaneously contracted tracheal smooth muscle relative to papaverine. The series is classed as tissue-based.
Series [5] is filed under the species Cavia porcellus. The series is described as follows: Agonist activity at beta-adrenoceptor in guinea pig trachea assessed as relaxation of spontaneously contracted tracheal smooth muscle. Format: tissue-based.
Series [6] is described as follows: Agonist activity at beta-adrenoceptor in guinea pig atria assessed as cardiac stimulant activity by measuring change in rate of contraction of right atrial muscle at 56 uM. The series is classed as tissue-based, Cavia porcellus, Cardiac atrium.
Series [7] is filed under the species Cavia porcellus. The series is described as follows: Agonist activity at beta-adrenoceptor in guinea pig trachea assessed as relaxation of spontaneously contracted tracheal smooth muscle at 11 uM. The series is classed as tissue-based. Also on record: scale not given: the % may be the effect or the level left.
Series [8] is described as follows: Agonist activity at beta-adrenoceptor in guinea pig atria assessed as cardiac stimulant activity by measuring change in rate of contraction of right atrial muscle at 0.11 mM. Format: tissue-based, Cavia porcellus, Cardiac atrium. The settings on record: 110 µM.
A short description of series [9]: Agonist activity at beta-adrenoceptor in guinea pig atria assessed as cardiac stimulant activity by measuring change in rate of contraction of right atrial muscle at 92 uM. The series is classed as tissue-based, Cavia porcellus, Cardiac atrium.
The nature of series [10]: Agonist activity at beta-adrenoceptor in guinea pig atria assessed as cardiac stimulant activity by measuring change in rate of contraction of right atrial muscle at 14 uM. Format: tissue-based, Cavia porcellus, Cardiac atrium.
Series [11] is filed under the species Cavia porcellus. In words: Agonist activity at beta-adrenoceptor in guinea pig trachea assessed as relaxation of spontaneously contracted tracheal smooth muscle at 12 uM. Details: scale not given: the % may be the effect or the level left. The series is classed as tissue-based.
Series [12] can be described thus: Agonist activity at beta-adrenoceptor in guinea pig atria assessed as cardiac stimulant activity by measuring change in rate of contraction of right atrial muscle at 0.12 mM. Conditions: 120 µM. Format: tissue-based, Cavia porcellus, Cardiac atrium.

Molecules are shown by their SMILES.

With `CC(O)c1cc(C(O)CNC(C)(C)C)ccc1O` (configuration not stated), in series [1], the ED25 was determined as 5.2 µM. Moreover, the values for the Ratio (in [2]; in series [3]; in the series filed under Cavia porcellus [4]) were 0.3, 289 and 1, respectively. Moreover, the ED50 in the series filed under Cavia porcellus [5] amounted to 1.8 ×10⁻⁸ M.
In the case of `CC(C)(C)NCC(O)c1ccc(O)c(O)c1` (configuration not stated) [COLTEROL], the ED25 in series [1] amounted to 0.0071 µM. Further, the Ratio turned out to be 1 in [2], 5.5 in series [3] and 1 in the series filed under Cavia porcellus [4]. Further, the ED50 in the series listed under Cavia porcellus [5] was found to be 1.3 nM.
In the case of `CC(C)(C)NCC(O)c1ccc(O)c(C(C)(C)O)c1` (configuration not stated), the figures for the Activity (in series [6]; in the series listed under Cavia porcellus [7]) were 8% and 30%, respectively. The ED50 in the series listed under Cavia porcellus [5] was found to be 1.1 ×10⁻⁵ M.
Regarding `COC(CO)c1cc(C(O)CNC(C)(C)C)ccc1O` (configuration not stated), the Ratio in [3] is above 320; in the series listed under Cavia porcellus [4], 0.7. Further, the Activity in series [8] was found to be 0%. The ED50 in the series listed under Cavia porcellus [5] stood at 3.4 ×10⁻⁷ M.
For `CC(C)NCC(O)c1ccc(O)c(O)c1` (configuration not stated) [ISOPROTERENOL], in the series listed under Cavia porcellus [4], the Ratio was found to be 1. Besides, the ED50 in the series filed under Cavia porcellus [5] is 7.1 nM.
For the compound `CC(C)(C)NCC(O)c1ccc(O)c(C(O)CNC(C)(C)C)c1` (configuration not stated), in [1], the ED25 amounted to 9.2 ×10⁻⁵ M. Further, the Ratio in series [3] was above 6; in the series listed under Cavia porcellus [4] it was 0.9. Also, in series [9], the Activity is 14%. In the series listed under Cavia porcellus [5], the ED50 stood at 1.5 ×10⁻⁵ M.
Take `CC(C)(C)NCC(O)c1ccc(O)c(C(O)CO)c1` (configuration not stated): the ED25 in series [1] worked out at 3 ×10⁻⁵ M. Besides, the Ratio in series [2] turned out to be 0.3; in series [3], 303; in the series listed under Cavia porcellus [4] it was 1. The ED50 in the series listed under Cavia porcellus [5] is 9.9 ×10⁻⁸ M.
For the compound `CC(C)(C)NCC(O)c1ccc(O)c(C(O)CS(C)(=O)=O)c1` (configuration not stated), the ED25 in [1] turned out to be 1.4 ×10⁻⁵ M. Besides, the figures for the Activity (in series [10]; in the series listed under Cavia porcellus [11]) were 0% and 34%, respectively. The ED50 in the series listed under Cavia porcellus [5] came out at 1.2 ×10⁻⁵ M.
For `CC(C)(C)NCC(O)c1ccc(O)c(CO)c1` (configuration not stated) [ALBUTEROL], the Ratio stood at 0.7 in series [2], 28 in series [3] and 1 in the series listed under Cavia porcellus [4]. Moreover, the ED50 in the series listed under Cavia porcellus [5] worked out at 1.1 ×10⁻⁸ M.
On to `COCC(O)c1cc(C(O)CNC(C)(C)C)ccc1O` (configuration not stated), for which the ED25 in series [1] is reported as 1.2 ×10⁻⁴ M. Further, the Ratio was 236 in [3] and 0.9 in the series filed under Cavia porcellus [4]. Further, in series [12], the Activity stood at 23%. Besides, the ED50 in the series listed under Cavia porcellus [5] was 5.3 ×10⁻⁷ M.

Source of the values: ChEMBL document CHEMBL3272282, “Adrenergic agents. 6. Synthesis and potential beta-adrenergic agonist activity of some meta-substituted p-hydroxyphenylethanolamines related to salbutamol” (J Med Chem, 1977).
